Earlier results, collected in paper PMC10698917, “Antioxidant and antidiabetic flavonoids from the leaves of Dypsis pembana (H.E.Moore) Beentje & J.Dransf., Arecaceae: in vitro and molecular docking studies” (BMC Complementary Medicine and Therapies, 2023).

System: HepG-2 cell line
Parameters: method as in PMID 37391756
Conditions: cited from earlier work

SMILES | Cytotoxic activity
O=c1cc(-c2ccc(O)cc2)oc2cc(O)c([C@@H]3O[C@H](CO)[C@@H](O)[C@H](O)[C@H]3O)c(O)c12 [Compound 13, isovitexin] | promising cytotoxic activities
O=c1cc(-c2ccc(O)cc2)oc2c([C@@H]3O[C@H](CO)[C@@H](O)[C@H](O)[C@H]3O)c(O)c([C@@H]3O[C@H](CO)[C@@H](O)[C@H](O)[C@H]3O)c(O)c12 [Compound 7, vicenin-II] | promising cytotoxic activities
